{"source": "paper PMC6934184", "about": "“Selective DNA-PKcs inhibition extends the therapeutic index of localized radiotherapy and chemotherapy” (The Journal of Clinical Investigation, 2019)", "target": "T1, SPHK1 (Homo sapiens, UniProt Q9NYA1)", "T1 construct": "purchased Thermo Fisher Scientific (Life Technologies) SelectScreen", "T1 sequence (Q9NYA1 whole entry)": "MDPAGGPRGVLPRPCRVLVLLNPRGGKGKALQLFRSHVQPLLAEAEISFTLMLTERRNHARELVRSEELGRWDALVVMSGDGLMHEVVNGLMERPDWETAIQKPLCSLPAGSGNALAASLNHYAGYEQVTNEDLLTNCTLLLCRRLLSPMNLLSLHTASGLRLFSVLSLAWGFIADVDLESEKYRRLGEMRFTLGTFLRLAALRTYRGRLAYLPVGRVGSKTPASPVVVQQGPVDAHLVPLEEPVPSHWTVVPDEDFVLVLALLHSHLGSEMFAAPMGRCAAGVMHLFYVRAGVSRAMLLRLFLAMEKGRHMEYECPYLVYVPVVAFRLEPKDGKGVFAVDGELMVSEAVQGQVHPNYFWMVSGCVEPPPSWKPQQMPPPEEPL", "test": "SelectScreen Adapta", "assay_type": "biochemical", "how_it_was_run": "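Percent values come from Thermo SelectScreen profiling of NU5455, combining activity and binding assays. CSF1R was run in Z'LYTE format at Km app ATP, and CAMK1 in Adapta format with ATP listed at 10.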", "data": [{"smiles": "CN(C(=O)CN1CCOCC1)c1ccc2sc3c(-c4cccc5c(=O)cc(N6CC7CCC(C6)O7)oc45)cccc3c2c1", "note": "[NU5455]", "values": [{"measurement": "inhibition at 1 µM", "result": 2.7, "unit": "%"}]}]}
